We go through 13 compounds from the SangsterLogP compilation.

The nature of the data set: from Nakagawa, S.; Okajima, N.; Kitahaba, T.; Nishimura, K.; Fujita, T.; Nakajima, M. (1982). Quantitative structure-activity studies of substituted benzylchrysanthemates. I. Correlation between ….
Take `CC(C)=C[C@@H]1[C@@H](C(=O)OCc2ccc(C#N)cc2)C1(C)C`: the logP turned out to be 4.91. The figure for `CC(=O)OCN1C(=O)C2=C(CCCC2)C1=O` is 1.15; for `CC(=O)OCc1ccc([N+](=O)[O-])cc1` it is 1.73.

The compound `CC(=O)OCc1coc(Cc2ccccc2)c1` had a logP of 3.24. The compound `CC(C)=CC1C(C(=O)OCc2ccccc2)C1(C)C` (stereo not drawn) showed a log partition coefficient (logP) of 5.49. For `CC(=O)OCc1ccc(C)cc1`, the lipophilicity (logP) was found to be 2.44.

Take `CC(C)=C[C@@H]1[C@@H](C(=O)OCc2ccccc2[N+](=O)[O-])C1(C)C`: the logP worked out at 5.2. As for `COC(=O)C1C(C=C2CCSC2=O)C1(C)C` (stereo not drawn), the figure is 2.33; as for `COC(=O)[C@@H]1[C@@H](C=C(C)C)C1(C)C`, 3.76. `COc1cccc(COC(C)=O)c1`: the lipophilicity (logP) was 2.02. Turning to `C=CCC1=C(C)[C@H](OC(=O)C2C(C=C(C)C)C2(C)C)CC1=O` (stereo partly drawn), the logP was found to be 4.78. With `COC(=O)C1C(C=C(Cl)Cl)C1(C)C` (stereo not drawn), the lipophilicity (logP) was 3.63. As for `CC(=O)OCc1ccc(Cl)cc1`, the figure is 2.59.

The logP is a log measure of how a compound divides between an organic and an aqueous phase.
